Measurements as given in patent publication US10947237B2, “Antimicrobial compounds and methods of making and using the same” (BIOVERSYS AG, priority 2015, dated 2021).

Tests used:
[1] = test system: Eschericia coli (E. Coli) strain ATCC25922; experiment: standard microdilution assay, minimum inhibitory concentration (MIC); assay type: cell-based; settings: Escherichia coli
Experimental: (§1) The in vitro activity of the compounds of the present disclosure can be determined. Antimicrobial testing is typically performed to determine the minimum inhibitory concentration (MIC). Minimum inhibitory concentrations (MICs) are determined by the microdilution method in a final volume of 100 μl according to protocols outlined by The Clinical and Laboratory Standards Institute (CLSI). Performance standards for reference strains are assessed within the same experimental design to maintain quality control. See, for example, Clinical Laboratory Standards Institute: Methods for dilution antimicrobial susceptibility tests for bacteria that grow aerobically M7-A8. Approved Standard-Eighth Edition. Wayne, Pa.: CLSI; December 2008; and Clinical Laboratory Standards Institute: Performance Standards for Antimicrobial Susceptibility Testing M100-S20; Approved Standard-Twentieth Edition. Wayne, Pa.: CLSI; June 2010. The compounds of the present disclosure were tested for antimicrobial activity. The Compounds 1-149 were run against Eschericia coli (E. Coli) strain ATCC25922 and against Staphylococcus aureus (S. aureus) 11540 strain using a standard microdilution assay to determine minimum inhibitory concentrations (MICs). […] It will be recognized by one skilled in the art that the compounds can be assessed against other bacterial organisms and that the presentation of data for activity against Eschericia coli and Staphylococcus aureus are illustrative and in no way is intended to limit the scope of the present disclosure. The compounds of the present disclosure can be assayed against a range of other microorganisms depending upon the performance activity desired to be gathered. Furthermore, the “+” and “−” representation and the selection of a cutoff value of 16 micrograms/mL is also illustrative and in no way is intended to limit the scope of the present disclosure.

[2] = test system: Staphylococcus aureus (S. aureus) 11540 strain; experiment: as above; assay type: cell-based
Experimental: as §1

SMILES: Cc1cn(CC[C@@H]2CCC[C@@H](c3ccc(-n4cc5cc(-c6cc(CCC[C@H](C)N)cc(Cl)c6F)[nH]c5nc4=O)cc3)N2)c(=O)o1 [Compound 8]
- MIC ([1]; Table 2, strain ATCC25922): ≤ 16 mg/L
- MIC ([2]; Table 2, 11540 strain): ≤ 16 mg/L

SMILES: COc1ccc(NC[C@@H](CCNC(=N)N)NCc2ccc(-n3cc4cc(-c5cc(CCC[C@H](C)N)cc(Cl)c5F)[nH]c4nc3=O)cc2)nn1 [Compound 39]
- MIC ([1]; Table 2, strain ATCC25922): ≤ 16 mg/L
- MIC ([2]; Table 2, 11540 strain): ≤ 16 mg/L

SMILES: N=C(N)NCC[C@H](CNC(=N)N)OCc1ccc(-n2cc3cc(-c4cc(CCC[C@@H](N)CF)cc(Cl)c4F)[nH]c3nc2=O)cc1 [Compound 162]
- MIC ([1]; ATCC25922, Table 2a): ≤ 16 mg/L
- MIC ([2]; Table 2a): ≤ 16 mg/L

SMILES: CC(=N)NCC[C@@H](CNC(=N)N)OCc1ccc(-n2cc3cc(-c4cc(CCC[C@H](C)N)cc(Cl)c4F)[nH]c3nc2=O)cc1 [Compound 172]
- MIC ([1]; ATCC25922, Table 2a): ≤ 16 mg/L
- MIC ([2]; Table 2a): ≤ 16 mg/L

SMILES: C[C@H](N)CCCc1cc(Cl)c(F)c(-c2cc3cn(-c4ccc([C@@H]5CCC[C@@H](C[C@@H](O)c6ccn[nH]6)N5)cc4)c(=O)nc3[nH]2)c1 [Compound 22]
- MIC ([1]; Table 2, strain ATCC25922): ≤ 16 mg/L
- MIC ([2]; Table 2, 11540 strain): ≤ 16 mg/L

SMILES: C[C@H](N)CCCc1cc(Cl)c(F)c(-c2cc3cn(-c4ccc(N5CCO[C@@H](CCNC(=N)N)C5)cc4)c(=O)nc3[nH]2)c1 [Compound 134]
- MIC ([1]; Table 2, strain ATCC25922): ≤ 16 mg/L
- MIC ([2]; Table 2, 11540 strain): ≤ 16 mg/L

SMILES: C=C[C@H]1C[C@@H](CCNC(=N)N)O[C@H](c2ccc(-n3cc4cc(C5CCNC5)[nH]c4nc3=O)cc2)C1 (stereo partly drawn) [Compound 79]
- MIC ([1]; Table 2, strain ATCC25922): > 16 mg/L
- MIC ([2]; Table 2, 11540 strain): > 16 mg/L

SMILES: CC(=N)NCC[C@@H]1CCC[C@@H](c2ccc(-n3cc4cc(-c5cc(CCC[C@@H](N)CO)cc(Cl)c5F)[nH]c4nc3=O)cc2)N1 [Compound 151]
- MIC ([1]; Table 2, strain ATCC25922): ≤ 16 mg/L
- MIC ([2]; Table 2, 11540 strain): ≤ 16 mg/L

SMILES: C=C[C@@H](CCNC(=N)N)OCc1ccc(-n2cc3cc(-c4cc(CCC[C@H](C)N)cc(Cl)c4F)[nH]c3nc2=O)cc1 [Compound 132]
- MIC ([1]; Table 2, strain ATCC25922): ≤ 16 mg/L
- MIC ([2]; Table 2, 11540 strain): ≤ 16 mg/L

SMILES: C[C@H](N)CCCc1cc(Cl)c(F)c(-c2cc3cn(-c4ccc([C@@H]5C/C(=C/CNC(=N)N)CC(CO)O5)cc4)c(=O)nc3[nH]2)c1 (stereo partly drawn) [Compound 89]
- MIC ([1]; Table 2, strain ATCC25922): ≤ 16 mg/L
- MIC ([2]; Table 2, 11540 strain): ≤ 16 mg/L

SMILES: C[C@H](N)CCCc1cc(Cl)c(F)c(-c2cc3cn(-c4ccc([C@@H]5CCC[C@@H](CNCc6c[nH]nn6)N5)cc4)c(=O)nc3[nH]2)c1 [Compound 18]
- MIC ([1]; Table 2, strain ATCC25922): > 16 mg/L
- MIC ([2]; Table 2, 11540 strain): > 16 mg/L

SMILES: C[C@H](N)CCCc1cc(Cl)c(F)c(-c2cc3cn(-c4ccc(CO[C@H](CCN5CCNC5=O)CNC(=N)N)cc4)c(=O)nc3[nH]2)c1 [Compound 177]
- MIC ([1]; ATCC25922, Table 2a): ≤ 16 mg/L
- MIC ([2]; Table 2a): ≤ 16 mg/L

SMILES: C[C@H](N)CCCc1cc(Cl)c(F)c(-c2cc3cn(-c4ccc([C@@H]5CCC[C@@H](CCNC6=NCCC6)N5)cc4)c(=O)nc3[nH]2)c1 [Compound 27]
- MIC ([1]; Table 2, strain ATCC25922): ≤ 16 mg/L
- MIC ([2]; Table 2, 11540 strain): ≤ 16 mg/L

SMILES: C[C@H](N)CCCc1cc(Cl)c(F)c(-c2cc3cn(-c4ccc([C@@H]5CCC[C@@H](Cc6cnc(N)o6)N5)cc4)c(=O)nc3[nH]2)c1 [Compound 10]
- MIC ([1]; Table 2, strain ATCC25922): > 16 mg/L
- MIC ([2]; Table 2, 11540 strain): > 16 mg/L

SMILES: C[C@H](N)CCCc1cc(Cl)c(F)c(-c2cc3cn(-c4ccc([C@@H]5CCC[C@@H](CCN6CCOC6=O)N5)cc4)c(=O)nc3[nH]2)c1 [Compound 20]
- MIC ([1]; Table 2, strain ATCC25922): > 16 mg/L
- MIC ([2]; Table 2, 11540 strain): > 16 mg/L

SMILES: N=C(N)NCC[C@@H]1CCC[C@@H](c2ccc(-n3cc4cc(C5CCNC5)[nH]c4nc3=O)cc2)N1 (stereo partly drawn) [Compound 100]
- MIC ([1]; Table 2, strain ATCC25922): ≤ 16 mg/L
- MIC ([2]; Table 2, 11540 strain): ≤ 16 mg/L

SMILES: C[C@H](N)CCCc1cc(Cl)c(F)c(-c2cc3cn(-c4ccc([C@H]5CCC[C@H](CCNC(=N)N)C5)cc4)c(=O)nc3[nH]2)c1 [Compound 35]
- MIC ([1]; Table 2, strain ATCC25922): ≤ 16 mg/L
- MIC ([2]; Table 2, 11540 strain): ≤ 16 mg/L

SMILES: C[C@H](N)CCCc1cc(Cl)c(F)c(-c2cc3cn(-c4ccc(CO[C@H](CCNC(=N)N)CNc5ncc[nH]5)cc4)c(=O)nc3[nH]2)c1 [Compound 76]
- MIC ([1]; Table 2, strain ATCC25922): ≤ 16 mg/L
- MIC ([2]; Table 2, 11540 strain): ≤ 16 mg/L

SMILES: N=C(N)NCC[C@H]1CN(c2ccc(-n3cc4cc(C5CCNC5)[nH]c4nc3=O)cc2)CCO1 (stereo partly drawn) [Compound 145]
- MIC ([1]; Table 2, strain ATCC25922): > 16 mg/L
- MIC ([2]; Table 2, 11540 strain): > 16 mg/L

SMILES: N=C(N)NCC[C@H](CF)OCc1ccc(-n2cc3cc(C4CCNC4)[nH]c3nc2=O)cc1 (stereo partly drawn) [Compound 136]
- MIC ([1]; Table 2, strain ATCC25922): > 16 mg/L
- MIC ([2]; Table 2, 11540 strain): > 16 mg/L

SMILES: CC1=NCC[C@H]2CCC[C@H](c3ccc(-n4cc5cc(-c6cc(CCC[C@H](C)N)cc(Cl)c6F)[nH]c5nc4=O)cc3)N12 [Compound 2]
- MIC ([1]; Table 2, strain ATCC25922): ≤ 16 mg/L
- MIC ([2]; Table 2, 11540 strain): ≤ 16 mg/L

SMILES: C[C@H](N)CCCc1cc(Cl)c(F)c(-c2cc3cn(-c4ccc([C@@H]5CCC[C@@H](CCNC(=N)CCl)N5)cc4)c(=O)nc3[nH]2)c1 [Compound 86]
- MIC ([1]; Table 2, strain ATCC25922): ≤ 16 mg/L
- MIC ([2]; Table 2, 11540 strain): ≤ 16 mg/L

SMILES: CC(=N)NCC[C@H](CNC(C)=N)OCc1ccc(-n2cc3cc(-c4cc(CCC[C@H](C)N)cc(Cl)c4F)[nH]c3nc2=O)cc1 [Compound 169]
- MIC ([1]; ATCC25922, Table 2a): ≤ 16 mg/L
- MIC ([2]; Table 2a): ≤ 16 mg/L

SMILES: C[C@H](N)CCCc1cc(Cl)c(F)c(-c2cc3cn(-c4ccc(CN[C@H](CCNC(=N)N)CNC(=N)N)cc4)c(=O)nc3[nH]2)c1 [Compound 4]
- MIC ([1]; Table 2, strain ATCC25922): ≤ 16 mg/L
- MIC ([2]; Table 2, 11540 strain): ≤ 16 mg/L

SMILES: C[C@H](N)CCCc1cc(Cl)c(F)c(-c2cc3cn(-c4ccc(CO[C@H](CCNC(=N)N)CNc5ccccn5)cc4)c(=O)nc3[nH]2)c1 [Compound 75]
- MIC ([1]; Table 2, strain ATCC25922): ≤ 16 mg/L
- MIC ([2]; Table 2, 11540 strain): ≤ 16 mg/L

SMILES: CC(=N)NCC[C@H](CO)OCc1ccc(-n2cc3cc(-c4cc(CCC[C@H](C)N)cc(Cl)c4F)[nH]c3nc2=O)cc1 [Compound 72]
- MIC ([1]; Table 2, strain ATCC25922): ≤ 16 mg/L
- MIC ([2]; Table 2, 11540 strain): ≤ 16 mg/L

SMILES: C[C@H](N)CCCc1cc(Cl)c(F)c(-c2cc3cn(-c4ccc(CO[C@@H](C)CCNC(=N)N)cc4)c(=O)nc3[nH]2)c1 [Compound 66]
- MIC ([1]; Table 2, strain ATCC25922): ≤ 16 mg/L
- MIC ([2]; Table 2, 11540 strain): ≤ 16 mg/L

SMILES: COC[C@H](N)CCCc1cc(OC(F)(F)F)c(F)c(-c2cc3cn(-c4ccc(CO[C@H](CCNC(=N)N)CNC(=N)N)cc4)c(=O)nc3[nH]2)c1 [Compound 165]
- MIC ([1]; ATCC25922, Table 2a): ≤ 16 mg/L
- MIC ([2]; Table 2a): ≤ 16 mg/L

SMILES: C[C@H](N)CCCc1cc(Cl)c(F)c(-c2cc3cn(-c4ccc(CN[C@H](CCNC(=N)N)CNc5cc(=O)cc[nH]5)cc4)c(=O)nc3[nH]2)c1 [Compound 46]
- MIC ([1]; Table 2, strain ATCC25922): ≤ 16 mg/L
- MIC ([2]; Table 2, 11540 strain): ≤ 16 mg/L

SMILES: C=C[C@H]1C[C@@H](CCNC(=N)N)O[C@H](c2ccc(-n3cc4cc(C5CCN(C(=N)N)C5)[nH]c4nc3=O)cc2)C1 (stereo partly drawn) [Compound 80]
- MIC ([1]; Table 2, strain ATCC25922): > 16 mg/L
- MIC ([2]; Table 2, 11540 strain): > 16 mg/L

SMILES: C[C@H](N)CCCc1cc(Cl)c(F)c(-c2[nH]c3nc(=O)n(-c4ccc([C@H](C)NCCCNC(=N)N)cc4)cc3c2[N+](=O)[O-])c1[N+](=O)[O-] [Compound 111]
- MIC ([1]; Table 2, strain ATCC25922): > 16 mg/L
- MIC ([2]; Table 2, 11540 strain): ≤ 16 mg/L

SMILES: C=C[C@H](N)CCCc1cc(Cl)c(F)c(-c2cc3cn(-c4ccc(CO[C@H](CCNC(=N)N)CNC(=N)N)cc4)c(=O)nc3[nH]2)c1 [Compound 160]
- MIC ([1]; ATCC25922, Table 2a): ≤ 16 mg/L
- MIC ([2]; Table 2a): ≤ 16 mg/L

SMILES: C=C[C@@H](CCNC(=N)N)NCc1ccc(-n2cc3cc(-c4cc([C@@H]5CC[C@H](CN)O5)cc(Cl)c4F)[nH]c3nc2=O)cc1 [Compound 142]
- MIC ([1]; Table 2, strain ATCC25922): ≤ 16 mg/L
- MIC ([2]; Table 2, 11540 strain): ≤ 16 mg/L

SMILES: C[C@H](N)CCCc1cc(Cl)c(F)c(-c2cc3cn(-c4ccc(CN[C@H](CCNC(=N)N)CNc5nc6ccccc6[nH]5)cc4)c(=O)nc3[nH]2)c1 [Compound 37]
- MIC ([1]; Table 2, strain ATCC25922): ≤ 16 mg/L
- MIC ([2]; Table 2, 11540 strain): ≤ 16 mg/L

SMILES: C[C@H](N)CCCc1cc(Cl)c(F)c(-c2cc3cn(-c4ccc([C@@H]5CC[C@@H](CNC(=N)N)O5)cc4)c(=O)nc3[nH]2)c1 [Compound 69]
- MIC ([1]; Table 2, strain ATCC25922): ≤ 16 mg/L
- MIC ([2]; Table 2, 11540 strain): ≤ 16 mg/L

SMILES: C[C@H](N)CCCc1cc(Cl)c(F)c(-c2cc3cn(-c4ccc([C@H]5CC[C@@H](CCNC(=N)N)O5)cc4)c(=O)nc3[nH]2)c1 [Compound 73]
- MIC ([1]; Table 2, strain ATCC25922): ≤ 16 mg/L
- MIC ([2]; Table 2, 11540 strain): ≤ 16 mg/L
